From patent US11535621B2, “Heterobicyclic amides as inhibitors of CD38” (Ribon Therapeutics, Inc., priority 2019, dated 2022)

Target: Human CD38 (Homo sapiens (Human), UniProt P28907)
Test: CD38 enzyme assay
Format: biochemical
Details: 2 nM CD38, NAD+ substrate, absorbance at 405 nm
Text: [formula] where SUBcmpd is the subtracted value for the individual compound treated well, SUBmin is the average of the subtracted values of the 4-(((1r,4r)-4-(2-methoxyethoxy)cyclohexyl)amino)-1-methyl-6-(thiazol-5-yl)quinolin-2(1H)-one positive control wells and SUBmax is the average of the subtracted values of the DMSO negative control wells.
The % inhibition values were plotted as a function of compound concentration and the following 4-parameter fit was applied to derive the IC50 values:
[formula] where top and bottom are normally allowed to float, but may be fixed at 100 or 0 respectively in a 3-parameter fit. The Hill Coefficient is normally allowed to float but may also be fixed at 1 in a 3-parameter fit. Y is the % inhibition and X is the compound concentration.

Chain of Human CD38 (P28907 whole entry): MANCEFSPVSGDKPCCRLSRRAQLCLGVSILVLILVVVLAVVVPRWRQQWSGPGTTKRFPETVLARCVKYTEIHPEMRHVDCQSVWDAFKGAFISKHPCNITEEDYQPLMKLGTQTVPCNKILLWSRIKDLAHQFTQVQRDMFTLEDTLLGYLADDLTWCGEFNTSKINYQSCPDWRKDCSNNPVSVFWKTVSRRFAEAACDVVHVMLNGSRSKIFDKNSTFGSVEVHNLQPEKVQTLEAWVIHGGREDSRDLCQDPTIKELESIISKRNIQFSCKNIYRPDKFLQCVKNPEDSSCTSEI

First: O=C(NCc1c(F)cccc1C(F)(F)F)c1nc(-c2cncs2)cc2nc[nH]c12 [Example 33, N-(2-Fluoro-6-(trifluoromethyl)benzyl)-6-(thiazol-5-yl)-3I-imidazo[4,5-c]pyridine-4-carboxamide]
Second: O=C(NCc1c(F)cccc1C(F)(F)F)c1nc(-c2cncs2)nc2cc[nH]c12 [Example 43, N-(2-Fluoro-6-(trifluoromethyl)benzyl)-2-(thiazol-5-yl)-5H-pyrrolo[3,2-d]pyrimidine-4-carboxamide]
The IC50 of the first is higher: over 1 µM for the first, 0.1 to 1 µM for the second. The second is the more potent here.

First: COCCO[C@H]1CC[C@H](NC(=O)c2nc(-n3ccnc3C)nc3cc[nH]c23)CC1 [Example 34, N-((1r,4r)-4-(2-Methoxyethoxy)cyclohexyl)-2-(2-methyl-1H-imidazol-1-yl)-5H-pyrrolo[3,2-d]pyrimidine-4-carboxamide]
Second: COCCO[C@H]1CC[C@H](NC(=O)c2nc(-n3cncc3C)nc3cc[nH]c23)CC1 [Example 36, N-((1r,4r)-4-(2-Methoxyethoxy)cyclohexyl)-2-(5-methyl-1H-imidazol-1-yl)-5H-pyrrolo[3,2-d]pyrimidine-4-carboxamide]
The IC50 of the first is higher: over 1 µM for the first, 0.01 to 0.1 µM for the second. The second is the more potent here.

`COCCO[C@H]1CC[C@H](NC(=O)c2nc(-c3cn[nH]n3)nc3cc[nH]c23)CC1` [Example 35, N-((1r,4r)-4-(2-Methoxyethoxy)cyclohexyl)-2-(2H-1,2,3-triazol-4-yl)-5H-pyrrolo[3,2-d]pyrimidine-4-carboxamide] and `COCCO[C@H]1CC[C@H](NC(=O)c2nc(-c3c[nH]cn3)nc3cc[nH]c23)CC1` [Example 38, 2-(1H-Imidazol-4-yl)-N-((1r,4r)-4-(2-methoxyethoxy)cyclohexyl)-5H-pyrrolo[3,2-d]pyrimidine-4-carboxamide] cannot be ordered by IC50: over 1 µM for the first, over 1 µM for the second.

Compared with `COCCO[C@H]1CC[C@H](NC(=O)c2nc(-n3cnc(C)c3)nc3cc[nH]c23)CC1` [Example 37, N-((1r,4r)-4-(2-methoxyethoxy)cyclohexyl)-2-(4-methyl-1H-imidazol-1-yl)-5H-pyrrolo[3,2-d]pyrimidine-4-carboxamide], `CO[C@H]1CC[C@H](NC(=O)c2nc(-n3ccnc3)nc3cc[nH]c23)CC1` [Example 58, 2-(1H-Imidazol-1-yl)-N-((1r,4r)-4-methoxycyclohexyl)-5H-pyrrolo[3,2-d]pyrimidine-4-carboxamide] is lower in IC50: over 1 µM for the first, under 0.01 µM for the second.

`O=C(N[C@H]1CC[C@@H](C(F)(F)F)CC1)c1nc(-n2ccnc2)nc2cc[nH]c12` [Example 39a, 2-(1H-Imidazol-1-yl)-N-((1s,4s)-4-(trifluoromethyl)cyclohexyl)-5H-pyrrolo[3,2-d]pyrimidine-4-carboxamide] and `O=C(N[C@H]1CC[C@H](C(F)(F)F)CC1)c1nc(-n2ccnc2)nc2cc[nH]c12` [Example 39b, 2-(1H-imidazol-1-yl)-N-((1r,4r)-4-(trifluoromethyl)cyclohexyl)-5H-pyrrolo[3,2-d]pyrimidine-4-carboxamide] cannot be ordered by IC50: under 0.01 µM for the first, under 0.01 µM for the second.

`COCCO[C@H]1CC[C@H](NC(=O)c2cc(-n3ccnc3)cc3cnsc23)CC1` [Example 41, 5-(1H-Imidazol-1-yl)-N-((1r,4r)-4-(2-methoxyethoxy)cyclohexyl)benzo[d]isothiazole-7-carboxamide] and `COCCO[C@H]1CC[C@H](NC(=O)c2cc(-c3cncs3)cc3cc(C)[nH]c23)CC1` [Example 45, N-((1r,4r)-4-(2-Methoxyethoxy)cyclohexyl)-2-methyl-5-(thiazol-5-yl)-1H-indole-7-carboxamide] fall in the same range of IC50: 0.1 to 1 µM for the first, 0.1 to 1 µM for the second.

First: Cc1nc2cc(-n3ccnc3)cc(C(=O)NCc3c(F)cccc3C(F)(F)F)c2[nH]1 [Example 42, N-(2-Fluoro-6-(trifluoromethyl)benzyl)-5-(1H-imidazol-1-yl)-2-methyl-1H-benzo[d]imidazole-7-carboxamide]
Second: O=C(NCc1c(F)cccc1C(F)(F)F)c1cc(-n2ccnc2)nc2cc[nH]c12 [Example 44, N-(2-Fluoro-6-(trifluoromethyl)benzyl)-5-(1H-imidazol-1-yl)-1H-pyrrolo[3,2-b]pyridine-7-carboxamide]
The IC50 of the first is higher: 0.1 to 1 µM for the first, 0.01 to 0.1 µM for the second.

`O=C(NCc1c(F)cccc1C(F)(F)F)c1nc(-n2ccnc2)nc2nc[nH]c12` [Example 46, N-(2-Fluoro-6-(trifluoromethyl)benzyl)-2-(1H-imidazol-1-yl)-7H-purine-6-carboxamide] and `O=C(NCc1c(F)cccc1C(F)(F)F)c1nc(-n2ccnc2)nc2cc[nH]c12` [Example 51, N-(2-Fluoro-6-(trifluoromethyl)benzyl)-2-(1H-imidazol-1-yl)-5H-pyrrolo[3,2-d]pyrimidine-4-carboxamide] fall in the same range of IC50: 0.01 to 0.1 µM for the first, 0.01 to 0.1 µM for the second.

First: COCCO[C@H]1CC[C@H](NC(=O)c2nc(-c3cncs3)cc3nc[nH]c23)CC1 [Example 47, N-((1r,4r)-4-(2-Methoxyethoxy)cyclohexyl)-6-(thiazol-5-yl)-3H-imidazo[4,5-c]pyridine-4-carboxamide]
Second: COCCO[C@H]1CC[C@H](NC(=O)c2nc(-c3cncs3)nc3ccsc23)CC1 [Example 50, N-((1r,4r)-4-(2-Methoxyethoxy)cyclohexyl)-2-(thiazol-5-yl)thieno[3,2-d]pyrimidine-4-carboxamide]
The IC50 of the first is higher: over 1 µM for the first, 0.01 to 0.1 µM for the second.

`O=C(NCc1c(F)cccc1C(F)(F)F)c1nc(-n2ccnc2)cc2cn[nH]c12` [Example 48, N-(2-Fluoro-6-(trifluoromethyl)benzyl)-5-(1H-imidazol-1-yl)-1H-pyrazolo[3,4-c]pyridine-7-carboxamide] and `O=C(NCc1c(F)cccc1C(F)(F)F)c1nc(-n2ccnc2)nc2ccsc12` [Example 49, N-(2-Fluoro-6-(trifluoromethyl)benzyl)-2-(1H-imidazol-1-yl)thieno[3,2-d]pyrimidine-4-carboxamide] fall in the same range of IC50: 0.01 to 0.1 µM for the first, 0.01 to 0.1 µM for the second.

`O=C(NC1CCN(CC(F)(F)F)CC1)c1nc(-n2ccnc2)nc2cc[nH]c12` [Example 52, 2-(1H-Imidazol-1-yl)-N-(1-(2,2,2-trifluoroethyl)piperidin-4-yl)-5H-pyrrolo[3,2-d]pyrimidine-4-carboxamide] and `O=C(NC1CCN(CCC(F)(F)F)CC1)c1nc(-n2ccnc2)nc2cc[nH]c12` [Example 55, 2-(1H-Imidazol-1-yl)-N-(1-(3,3,3-trifluoropropyl)piperidin-4-yl)-5H-pyrrolo[3,2-d]pyrimidine-4-carboxamide] fall in the same range of IC50: 0.01 to 0.1 µM for the first, 0.01 to 0.1 µM for the second.

First: COCCN1CCC(NC(=O)c2nc(-n3ccnc3)nc3cc[nH]c23)CC1 [Example 53, 2-(1H-Imidazol-1-yl)-N-(1-(2-methoxyethyl)piperidin-4-yl)-5H-pyrrolo[3,2-d]pyrimidine-4-carboxamide]
Second: CN1CCC(NC(=O)c2nc(-n3ccnc3)nc3cc[nH]c23)CC1 [Example 60, 2-(1H-Imidazol-1-yl)-N-(1-methylpiperidin-4-yl)-5H-pyrrolo[3,2-d]pyrimidine-4-carboxamide]
The IC50 of the first is lower: 0.1 to 1 µM for the first, over 1 µM for the second. The first is the more potent here.

Compared with `O=C(NC1CCNCC1)c1nc(-n2ccnc2)nc2cc[nH]c12` [Example 54, 2-(1H-Imidazol-1-yl)-N-(piperidin-4-yl)-5H-pyrrolo[3,2-d]pyrimidine-4-carboxamide], `O=C(NC1CCCCC1)c1nc(-n2ccnc2)nc2cc[nH]c12` [Example 59, N-cyclohexyl-2-(1H-Imidazol-1-yl)-5H-pyrrolo[3,2-d]pyrimidine-4-carboxamide] is lower in IC50: over 1 µM for the first, under 0.01 µM for the second.

`COCCN[C@H]1CC[C@H](NC(=O)c2nc(-n3ccnc3)nc3cc[nH]c23)CC1` [Example 56, 2-(1H-Imidazol-1-yl)-N-((1r,4r)-4-((2-methoxyethyl)amino)cyclohexyl)-5H-pyrrolo[3,2-d]pyrimidine-4-carboxamide] and `COCCN(C)[C@H]1CC[C@H](NC(=O)c2nc(-n3ccnc3)nc3cc[nH]c23)CC1` [Example 57, 2-(1H-Imidazol-1-yl)-N-((1r,4r)-4-((2-methoxyethyl)(methyl)amino)cyclohexyl)-5H-pyrrolo[3,2-d]pyrimidine-4-carboxamide] fall in the same range of IC50: 0.01 to 0.1 µM for the first, 0.01 to 0.1 µM for the second.

`O=C(NC1CCS(=O)(=O)CC1)c1nc(-n2ccnc2)nc2cc[nH]c12` [Example 61, N-(1,1-Dioxidotetrahydro-2H-thiopyran-4-yl)-2-(1H-imidazol-1-yl)-5H-pyrrolo[3,2-d]pyrimidine-4-carboxamide] and `O=C(NC1CCOCC1)c1nc(-n2ccnc2)nc2cc[nH]c12` [Example 62, 2-(1H-Imidazol-1-yl)-N-(tetrahydro-2H-pyran-4-yl)-5H-pyrrolo[3,2-d]pyrimidine-4-carboxamide] fall in the same range of IC50: 0.01 to 0.1 µM for the first, 0.01 to 0.1 µM for the second.

First: COCCOc1ccc(NC(=O)c2nc(-n3ccnc3)nc3cc[nH]c23)cc1 [Example 63, 2-(1H-Imidazol-1-yl)-N-(4-(2-methoxyethoxy)phenyl)-5H-pyrrolo[3,2-d]pyrimidine-4-carboxamide]
Second: COCCO[C@H]1C[C@H](NC(=O)c2nc(-n3ccnc3)nc3cc[nH]c23)C1 [Example 65, 2-(1H-Imidazol-1-yl)-N-((1r,3r)-3-(2-methoxyethoxy)cyclobutyl)-5H-pyrrolo[3,2-d]pyrimidine-4-carboxamide]
The IC50 of the first is lower: under 0.01 µM for the first, 0.01 to 0.1 µM for the second.

`CC(=O)N1CCC(NC(=O)c2nc(-n3ccnc3)nc3cc[nH]c23)CC1` [Example 64, N-(1-Acetylpiperidin-4-yl)-2-(1H-imidazol-1-yl)-5H-pyrrolo[3,2-d]pyrimidine-4-carboxamide] and `CO[C@H]1C[C@H](NC(=O)c2nc(-n3ccnc3)nc3cc[nH]c23)C1` [Example 66, 2-(1H-Imidazol-1-yl)-N-((1r,3r)-3-methoxycyclobutyl)-5H-pyrrolo[3,2-d]pyrimidine-4-carboxamide] fall in the same range of IC50: 0.01 to 0.1 µM for the first, 0.01 to 0.1 µM for the second.

Compound `O=C(NC1CCN(CCC(F)(F)F)C1)c1nc(-n2ccnc2)nc2cc[nH]c12` (centres unmarked) [Example 67, 2-(1H-Imidazol-1-yl)-N-(1-(3,3,3-trifluoropropyl)pyrrolidin-3-yl)-5H-pyrrolo[3,2-d]pyrimidine-4-carboxamide] has an IC50 of 0.01 to 0.1 µM.
